Laboratory results: patent US5206236A, “Method for the treatment of malaria” (priority 1991, dated 1993)
“Also recorded” adds a separate entry of the source. Read-outs that look alike come from different tables or passages of the source.

Tests used:
Assay type in all cases: cell-based
[1] = system: Plasmodium falciparum strain W2 (chloroquine-resistant, mefloquine-sensitive); experiment: In vitro drug sensitivity assay (3H-hypoxanthine incorporation), strain W2; conditions: for IC50: Plasmodium falciparum
Protocol: (§1) Plasmodium falciparum strains W2 (chloroquine-resistant, mefloquine-sensitive) and D6 (mefloquine-resistant, chloroquine-sensitive)were cultured in a medium consisting of RPMI-1640, 25 mM HEPES, 25 mM NaHCO3, and 10% (v/v) fresh frozen human plasma. Into the wells of a 96 well microtiter plate there was placed 200 ul per well of a 1.5% erythrocyte suspension containing 0.2% to 0.4% parasitized erythrocytes containing serial dilutions of the test compounds. The plate was then placed in an anaerobic chamber, flushed with nitrogen gas and incubated at 37° C. After 24 hours, 25 ul per well of G-^3 H-hypoxanthine (1 mCi/ml) were added and the plate reincubated as above. After 42 hours, the cells were harvested with a multimash-type cell harvester onto glass microfiber paper. A scintillation counter was used to determine the incorporated of ^3 H-hypoxanthine. The activities of the compounds tested were determined by comparing the incorporation of ^3 H-hypoxanthine to drug concentration using computerized non-linear regression analysis. [Antimicrob. Agents Chemother. 16:710, 1979; Am.J.Trop.Med.Hygiene 34:209, 1985].

[2] = system: Plasmodium falciparum strain D6 (mefloquine-resistant, chloroquine-sensitive); experiment: In vitro drug sensitivity assay (3H-hypoxanthine incorporation), strain D6; conditions: for IC50: Plasmodium falciparum
Protocol: as §1

[3] = system: Plasmodium falciparum strains W2 and D6; experiment: In vitro drug sensitivity assay, overall efficacy over both strains; conditions: qualitative
Protocol: as §1

[4] = strain W2, 3H-hypoxanthine incorporation, 42 hours, 37° C, read-out: IC50 (uM), W2
[5] = strain D6, 3H-hypoxanthine incorporation, 42 hours, 37° C, read-out: IC50 (uM), D6

Structure (SMILES)	IC50 [1, 4] [µM]	IC50 [2, 5] [µM]	other results
N=C(N)c1cccc(OCCCCCCOc2cccc(C(=N)N)c2)c1 [Example 14]	0.125	0.132	
N=C(N)c1cccc(OCCCCOc2cccc(C(=N)N)c2)c1 [Example 12]	0.043	0.046	efficacy against malaria (in words) [3]: Very close in therapeutic efficacy against malaria
N=C(N)c1ccc(OCCCCCCOc2ccc(C(=N)N)cc2)cc1 [Example 9]	0.345	0.118	
N=C(N)c1cccc(OCCCCCOc2cccc(C(=N)N)c2)c1 [Example 13]	0.08	0.069	
N=C(N)c1ccc(OCCCCOc2ccc(C(=N)N)cc2)cc1 [Example 3]	0.12	0.057	
N=C(N)c1ccc(NCCCCCNc2ccc(C(=N)N)cc2)cc1 [Example 8]	0.022	< 0.02	efficacy against the chloroquine-resistant strain (W2) (in words) ([1]; qualitative): most effective compound; efficacy against malaria (in words) [3]: most efficacious product identified to date; also recorded: best compound for treating both strains of Plasmodium falciparum; efficacy against the mefloquine-resistant strain (D6) (in words) ([2]; qualitative): most effective compound
N=C(N)c1ccc(NCCCCNc2ccc(C(=N)N)cc2)cc1 [Example 2]	0.057	0.025	
N=C(N)c1ccc(OCCCCCOc2ccc(C(=N)N)cc2[N+](=O)[O-])c([N+](=O)[O-])c1 [Example 5]			IC50 ([1]; W2, read-out: IC50 (uM), W2): 0.069 µM; IC50 ([2]; D6, read-out: IC50 (uM), D6): 0.071 µM
N=C(N)c1ccc(OCCCCCOc2ccc(C(=N)N)cc2)cc1 [Example 4, reference compound]			IC50 ([1]; W2, read-out: IC50 (uM), W2): 0.083 µM; efficacy against malaria (in words) [3]: moderately effective against malaria; IC50 ([2]; D6, read-out: IC50 (uM), D6): 0.038 µM

Now from value to compound, other results behind:

IC50 [1, 4] [µM]	IC50 [2, 5] [µM]	Structure (SMILES)	other results
0.076	0.046	N=C(N)c1ccc(OCCCCCOc2ccc(C(=N)N)cc2N)c(N)c1 [Example 6]	
0.06	0.1	COc1cc(C2=NCCN2)ccc1OCCCOc1ccc(C2=NCCN2)cc1OC [Example 17]	
0.06	0.025	c1cc(C2=NCCN2)ccc1OCCCOc1ccc(C2=NCCN2)cc1 [Example 18]	efficacy against malaria (in words) [3]: Very close in therapeutic efficacy against malaria
0.066	0.106	COc1cc(C(=N)N)ccc1OCCCCCOc1ccc(C(=N)N)cc1OC [Example 7]	
0.156	0.194	N=C(N)c1cccc(OCCCOc2cccc(C(=N)N)c2)c1 [Example 11]	
0.165	0.107	N=C(N)c1ccc(OCCCCCOc2ccc(C(=N)N)cc2Cl)c(Cl)c1 [Example 10]	
1.82	0.089	CN1CCN=C1c1ccc(OCCCCCOc2ccc(C3=NCCN3C)cc2)cc1 [Example 16]	
0.104	0.023	c1cc(C2=NCCN2)ccc1OCCCCCOc1ccc(C2=NCCN2)cc1 [Example 15]	efficacy against malaria (in words) [3]: Very close in therapeutic efficacy against malaria
0.065	0.077	COc1cc(C(=N)N)ccc1OCCCOc1ccc(C(=N)N)cc1OC [Example 1]	
